Source: the NIST ThermoML archive (doi:10.1016/j.jct.2005.09.004)

Legend:
[1] = xn = mol fraction of the nth substance listed; details: for surface tension liquid-gas: Drop volume; for mass density: 101 kPa, Liquid
[2] = refractive index (Na D-line) (dimensionless); φn = volume fraction of the nth substance listed; details: 101 kPa, Liquid, Standard Abbe refractometry

C1COCCO1 [1,4-dioxane] + C1CCCCC1
Details	mass density [kg/m3]	refractive index	surface tension liquid-gas [mN/m]
[1], 283.15 K, x1 = 0.0502	796.53	–	–
[1], 283.15 K, x1 = 0.0684	–	–	26.1
[1], 283.15 K, x1 = 0.0999	805.45	–	–
[1], 283.15 K, x1 = 0.1484	–	–	25.94
[1], 283.15 K, x1 = 0.1953	823.9	–	–
[1], 283.15 K, x1 = 0.2267	–	–	25.85
[1], 283.15 K, x1 = 0.2899	843.69	–	–
[1], 283.15 K, x1 = 0.2974	–	–	25.97
[1], 283.15 K, x1 = 0.3996	868.5	–	–
[1], 283.15 K, x1 = 0.4402	–	–	26.2
[1], 283.15 K, x1 = 0.5017	893.36	–	–
[1], 283.15 K, x1 = 0.5509	–	–	26.51
[1], 283.15 K, x1 = 0.6007	919.28	–	–
[1], 283.15 K, x1 = 0.6578	–	–	27.08
[1], 283.15 K, x1 = 0.699	946.87	–	–
[1], 283.15 K, x1 = 0.7394	–	–	27.97
[1], 283.15 K, x1 = 0.7956	976.06	–	–
[1], 283.15 K, x1 = 0.8115	–	–	29.3
[1], 283.15 K, x1 = 0.8994	1009.7	–	–
[1], 283.15 K, x1 = 0.9186	–	–	32
[1], 283.15 K, x1 = 0.9446	1025.26	–	–
[1], 283.15 K, x1 = 0.9738	–	–	33.93
[1], 298.15 K, x1 = 0.0535	782.54	–	–
[1], 298.15 K, x1 = 0.0684	–	–	25.1
[1], 298.15 K, x1 = 0.1053	791.71	–	–
[1], 298.15 K, x1 = 0.1484	–	–	25.24
[1], 298.15 K, x1 = 0.1998	809.79	–	–
[1], 298.15 K, x1 = 0.2267	–	–	25.29
[1], 298.15 K, x1 = 0.2974	–	–	25.38
[1], 298.15 K, x1 = 0.3003	830.58	–	–
[1], 298.15 K, x1 = 0.4026	853.43	–	–
[1], 298.15 K, x1 = 0.4402	–	–	25.72
[1], 298.15 K, x1 = 0.5006	876.98	–	–
[1], 298.15 K, x1 = 0.5509	–	–	26.07
[1], 298.15 K, x1 = 0.5971	901.85	–	–
[1], 298.15 K, x1 = 0.6578	–	–	26.62
[1], 298.15 K, x1 = 0.7028	931.22	–	–
[1], 298.15 K, x1 = 0.7394	–	–	27.1
[1], 298.15 K, x1 = 0.8089	963.35	–	–
[1], 298.15 K, x1 = 0.8115	–	–	28
[1], 298.15 K, x1 = 0.9038	994.24	–	–
[1], 298.15 K, x1 = 0.9186	–	–	30.26
[1], 298.15 K, x1 = 0.9485	1009.6	–	–
[1], 298.15 K, x1 = 0.9738	–	–	31.99
[1], 313.15 K, x1 = 0.0497	767.71	–	–
[1], 313.15 K, x1 = 0.0684	–	–	23.8
[1], 313.15 K, x1 = 0.102	776.79	–	–
[1], 313.15 K, x1 = 0.1484	–	–	24.23
[1], 313.15 K, x1 = 0.1944	794	–	–
[1], 313.15 K, x1 = 0.2267	–	–	24.46
[1], 313.15 K, x1 = 0.2926	813.99	–	–
[1], 313.15 K, x1 = 0.2974	–	–	24.71
[1], 313.15 K, x1 = 0.3973	837	–	–
[1], 313.15 K, x1 = 0.4402	–	–	25.23
[1], 313.15 K, x1 = 0.4969	860.64	–	–
[1], 313.15 K, x1 = 0.5509	–	–	25.7
[1], 313.15 K, x1 = 0.5992	886.73	–	–
[1], 313.15 K, x1 = 0.6578	–	–	26.2
[1], 313.15 K, x1 = 0.6988	914.22	–	–
[1], 313.15 K, x1 = 0.7394	–	–	26.62
[1], 313.15 K, x1 = 0.7966	943.29	–	–
[1], 313.15 K, x1 = 0.8115	–	–	27.13
[1], 313.15 K, x1 = 0.8972	975.49	–	–
[1], 313.15 K, x1 = 0.9186	–	–	28.62
[1], 313.15 K, x1 = 0.9505	993.41	–	–
[1], 313.15 K, x1 = 0.9738	–	–	30.17
[2], 283.15 K, φ1 = 0.0478	–	1.4305	–
[2], 283.15 K, φ1 = 0.075	–	1.42987	–
[2], 283.15 K, φ1 = 0.1601	–	1.42827	–
[2], 283.15 K, φ1 = 0.251	–	1.4271	–
[2], 283.15 K, φ1 = 0.3438	–	1.42629	–
[2], 283.15 K, φ1 = 0.4452	–	1.42577	–
[2], 283.15 K, φ1 = 0.5448	–	1.42557	–
[2], 283.15 K, φ1 = 0.649	–	1.42556	–
[2], 283.15 K, φ1 = 0.756	–	1.42585	–
[2], 283.15 K, φ1 = 0.8802	–	1.42643	–
[2], 283.15 K, φ1 = 0.9414	–	1.4268	–
[2], 298.15 K, φ1 = 0.0319	–	1.4226	–
[2], 298.15 K, φ1 = 0.0849	–	1.42144	–
[2], 298.15 K, φ1 = 0.1562	–	1.42012	–
[2], 298.15 K, φ1 = 0.2528	–	1.41893	–
[2], 298.15 K, φ1 = 0.3465	–	1.41821	–
[2], 298.15 K, φ1 = 0.4415	–	1.4178	–
[2], 298.15 K, φ1 = 0.5389	–	1.4177	–
[2], 298.15 K, φ1 = 0.651	–	1.41786	–
[2], 298.15 K, φ1 = 0.7604	–	1.41827	–
[2], 298.15 K, φ1 = 0.8701	–	1.41893	–
[2], 298.15 K, φ1 = 0.9439	–	1.41949	–
[2], 313.15 K, φ1 = 0.0381	–	1.41404	–
[2], 313.15 K, φ1 = 0.0816	–	1.41308	–
[2], 313.15 K, φ1 = 0.1625	–	1.41168	–
[2], 313.15 K, φ1 = 0.268	–	1.41055	–
[2], 313.15 K, φ1 = 0.3476	–	1.41002	–
[2], 313.15 K, φ1 = 0.4399	–	1.40973	–
[2], 313.15 K, φ1 = 0.5368	–	1.40971	–
[2], 313.15 K, φ1 = 0.6463	–	1.41003	–
[2], 313.15 K, φ1 = 0.7626	–	1.41069	–
[2], 313.15 K, φ1 = 0.8682	–	1.41143	–
[2], 313.15 K, φ1 = 0.9462	–	1.4121	–
